Experimental findings from patent US20250313604A1, “PEPTIDE PHARMACEUTICALS FOR INSULIN RESISTANCE” (Mederis Diabetes LLC, priority 2014, published 2025) are described below.

The target in data set [1] is T1, glucagon R (Homo sapiens, UniProt P47871).
T1 construct: host or cells: CHO cells
Put plainly: Cerep cellular assay, stimulation of cAMP levels, glucagon (human, cloned into CHO cells). The format is cell-based. The method, then: Compounds were weighed precisely in an amount of approximately 1 mg and assayed in standard cellular assays (Cerep SA). The readout is the amount of cAMP generated in the cells treated with the test compounds, in either agonist or antagonist mode. […] The assays are described in Chicchi, G. G., et al. (1997) J Biol Chem 272:7765-7769 and Runge, S., et al. (2003) Br J Pharmacol 138:787-794.

Data set [2] in a line: Plasma protease stability. The format is in vitro ADME. The settings on record: incubation at 30 degC, t=0-8 hrs, LC-MS (FIG. 8). The method, then: Standard and QC Sample Preparation: i. […] Make standard working solutions in 50% CH3CN with the stock solution. […] Spiked 10 μL of the working solutions into 90 μL blank plasma and vortex them, iv. […] Transfer the supernatant into an HPLC injection plate for loading on the HPLC column, vi.

Data set [3] has as its system db/db mice. Kind of data set: In vivo assay in db/db mice (blood glucose, body weight, food consumption).

SMILES strings stand for the structures. Non-standard residues stand in square brackets, D forms with d. Residues, ends and D or L forms follow the SMILES beside them. *: point of attachment. GlcA(β-D,1-O-dodecyl) = CCCCCCCCCCCCO[C@@H]1O[C@H](C(=O)*)[C@@H](O)[C@H](O)[C@H]1O; αMeF = C[C@](N)(Cc1ccccc1)C(=O)O; Aib = CC(C)(N)C(=O)O

T1 sequence (P47871 26-477): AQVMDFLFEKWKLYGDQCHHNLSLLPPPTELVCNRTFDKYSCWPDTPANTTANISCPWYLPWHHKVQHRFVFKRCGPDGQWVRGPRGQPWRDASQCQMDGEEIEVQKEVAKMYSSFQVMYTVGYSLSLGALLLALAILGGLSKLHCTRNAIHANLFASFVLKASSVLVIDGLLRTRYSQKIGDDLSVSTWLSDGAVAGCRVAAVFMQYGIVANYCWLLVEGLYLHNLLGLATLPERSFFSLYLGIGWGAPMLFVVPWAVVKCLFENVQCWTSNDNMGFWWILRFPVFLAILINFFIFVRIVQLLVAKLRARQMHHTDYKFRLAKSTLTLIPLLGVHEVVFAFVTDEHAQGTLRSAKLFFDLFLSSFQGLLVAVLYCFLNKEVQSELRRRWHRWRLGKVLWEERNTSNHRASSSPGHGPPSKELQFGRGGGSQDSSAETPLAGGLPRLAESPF

Take `CCCCCCCCCCCCO[C@@H]1O[C@H](C(=O)NCCCC[C@H](NC(=O)C(C)(C)NC(=O)[C@H](CC(=O)O)NC(=O)[C@H](CC(C)C)NC(=O)[C@H](Cc2ccc(O)cc2)NC(=O)[C@H](CCCCN)NC(=O)[C@H](CO)NC(=O)[C@H](Cc2ccc(O)cc2)NC(=O)[C@H](CC(=O)O)NC(=O)[C@H](CO)NC(=O)[C@@H](NC(=O)[C@](C)(Cc2ccccc2)NC(=O)[C@@H](NC(=O)CNC(=O)[C@H](CCC(N)=O)NC(=O)C(C)(C)NC(=O)[C@@H](N)Cc2c[nH]cn2)[C@@H](C)O)[C@@H](C)O)C(N)=O)[C@@H](O)[C@H](O)[C@H]1O` [EU-A391] (H-H[Aib]QGT[αMeF]TSDYSKYLD[Aib]K(GlcA(β-D,1-O-dodecyl))-NH2; N-terminus assumed): the GLCR cellular response entry in data set [1] is reported as “does not change”.
As for `CCCCCCCCCCCCO[C@@H]1O[C@H](C(=O)NCCCC[C@H](NC(=O)[C@@H](NC(=O)[C@H](Cc2ccccc2)NC(=O)[C@H](CCC(=O)O)NC(=O)[C@@H]2CCCCNC(=O)CC[C@H](NC(=O)[C@H](CC(=O)O)NC(=O)[C@H](CC(C)C)NC(=O)[C@H](Cc3ccc(O)cc3)NC(=O)[C@H](CCCCN)NC(=O)[C@H](CO)NC(=O)[C@H](Cc3ccc(O)cc3)NC(=O)[C@H](CC(=O)O)NC(=O)[C@H](CO)NC(=O)[C@@H](NC(=O)[C@H](Cc3ccccc3)NC(=O)[C@@H](NC(=O)CNC(=O)[C@H](CCC(N)=O)NC(=O)C(C)(C)NC(=O)[C@@H](N)Cc3c[nH]cn3)[C@@H](C)O)[C@@H](C)O)C(=O)N[C@@H](CCC(N)=O)C(=O)N[C@@H](C)C(=O)N[C@@H](C)C(=O)N2)[C@@H](C)CC)C(=O)N[C@@H](Cc2c[nH]c3ccccc23)C(=O)N[C@@H](CC(C)C)C(=O)N[C@@H](CC(C)C)C(=O)N[C@@H](CCC(N)=O)C(=O)N[C@H](C(N)=O)[C@@H](C)O)[C@@H](O)[C@H](O)[C@H]1O` [EU-A993, His1-Aib2-Gln3-Gly4-Thr5-Phe6-Thr7-Ser8-Asp9-Tyr10-Ser11-Lys12-Tyr13-Leu14-Asp15-Glu*16-Gln17-Ala18-Ala19-Lys*20-Glu21-Phe22-Ile23-Lys(N-omega(1-dodecylbeta-D-glucuronyl))24-Trp25-Leu26-Leu27-Gln28-Thr29-NH2], the “amount of intact compound in the human plasma versus time” value in data set [2] is reported as “essentially no change over 8 hrs”. Besides, the “db/db mice - Mean Blood Glucose” value was 503 mg/dL in data set [3] (250 nmole/kg s.c., 0 hr); 305 mg/dL in data set [3] (250 nmole/kg s.c., 10 hr); 324 mg/dL in data set [3] (250 nmole/kg s.c., 24 hr); 426 mg/dL in data set [3] (250 nmole/kg s.c., 48 hr).
As for `CCCCCCCCCCCCO[C@@H]1O[C@H](CO[C@H]2O[C@H](C(=O)NCCCC[C@H](NC(=O)[C@@H](NC(=O)[C@H](Cc3ccccc3)NC(=O)[C@H](CCC(=O)O)NC(=O)[C@@H]3CCCCNC(=O)CC[C@H](NC(=O)[C@H](CC(=O)O)NC(=O)[C@H](CC(C)C)NC(=O)[C@H](Cc4ccc(O)cc4)NC(=O)[C@H](CCCCN)NC(=O)[C@H](CO)NC(=O)[C@H](Cc4ccc(O)cc4)NC(=O)[C@H](CC(=O)O)NC(=O)[C@H](CO)NC(=O)[C@@H](NC(=O)[C@H](Cc4ccccc4)NC(=O)[C@@H](NC(=O)CNC(=O)[C@H](CCC(N)=O)NC(=O)C(C)(C)NC(=O)[C@@H](N)Cc4c[nH]cn4)[C@@H](C)O)[C@@H](C)O)C(=O)N[C@@H](CCC(N)=O)C(=O)N[C@@H](C)C(=O)N[C@@H](C)C(=O)N3)[C@@H](C)CC)C(=O)N[C@@H](Cc3c[nH]c4ccccc34)C(=O)N[C@@H](CC(C)C)C(=O)N[C@@H](CC(C)C)C(=O)N[C@@H](CCC(N)=O)C(=O)N[C@H](C(N)=O)[C@@H](C)O)[C@H](O)[C@H](O)[C@H]2O)[C@@H](O)[C@H](O)[C@H]1O` [EU-A1023, His1-Aib2-Gln3-Gly4-Thr5-Phe6-Thr7-Ser8-Asp9-Tyr10-Ser11-Lys12-Tyr13-Leu14-Asp15-Glu*16-Gln17 Ala18-Ala19-Lys*20-Glu21-Phe22-Ile23-Lys (N-omega (1-dodecyl beta-D-melibiouronyl)) 24-Trp25-Leu26-Leu27-Gln28-Thr29-NH2], the “amount of intact compound in the human plasma versus time” value in data set [2] is on record as “essentially no change over 8 hrs”. In addition, the “db/db mice - Mean Blood Glucose” value in data set [3] (50 nmole/kg s.c., 0 hr) is on record as 507 mg/dL; in data set [3] (50 nmole/kg s.c., 10 hr), 310 mg/dL; in data set [3] (50 nmole/kg s.c., 24 hr), 355 mg/dL; in data set [3] (50 nmole/kg s.c., 48 hr) it was 375 mg/dL; in data set [3] (250 nmole/kg s.c., 0 hr), 508 mg/dL; in data set [3] (250 nmole/kg s.c., 10 hr) it was 264 mg/dL. In addition, the “db/db mice - Mean Blood Glucose” value in data set [3] (250 nmole/kg s.c., 24 hr) came to 194 mg/dL; in data set [3] (250 nmole/kg s.c., 48 hr), 375 mg/dL.
With `CC[C@H](C)[C@H](NC(=O)[C@H](Cc1ccccc1)NC(=O)[C@H](CCC(=O)O)NC(=O)[C@H](CCCCN)NC(=O)[C@H](C)NC(=O)[C@H](C)NC(=O)[C@H](CCC(N)=O)NC(=O)CNC(=O)[C@H](CCC(=O)O)NC(=O)[C@H](CC(C)C)NC(=O)[C@H](Cc1ccc(O)cc1)NC(=O)[C@H](CO)NC(=O)[C@H](CO)NC(=O)[C@@H](NC(=O)[C@H](CC(=O)O)NC(=O)[C@H](CO)NC(=O)[C@@H](NC(=O)[C@H](Cc1ccccc1)NC(=O)[C@@H](NC(=O)CNC(=O)[C@H](CCC(=O)O)NC(=O)[C@H](C)NC(=O)[C@@H](N)Cc1c[nH]cn1)[C@@H](C)O)[C@@H](C)O)C(C)C)C(=O)N[C@@H](C)C(=O)N[C@@H](Cc1c[nH]c2ccccc12)C(=O)N[C@@H](CC(C)C)C(=O)N[C@H](C(=O)N[C@@H](CCCCN)C(=O)NCC(=O)N[C@@H](CCCNC(=N)N)C(N)=O)C(C)C` [GIP-1 (7-36), reference compound], in data set [2], the “amount of intact compound in the human plasma versus time” value is “rapid decrease”.
